Results on six compounds are retold here after patent US7786098B2, “Fluoroalkoxycombretastatin derivatives, method for producing the same and use thereof” (Zhejiang Dade Pharmaceutical Group Co. Ltd., priority 2006, dated 2010).

pIC50: −log10 of the molar value. Where two headings read alike, the source gives them in different places.

For test [1], the system named is tubulin. The following applies: U.S. Pat. No. 5,561,122; WO 9935150; cited from earlier work.
Test [2] has as its system SGC7901 human stomach cancer cell. In words: In vitro antitumor activity evaluation (SRB/MTT, 72 hours), SGC-7901. The class given is cell-based. As to conditions: Logit model. Here is the method:
(§1) The tumor cell cultured in vitro being administrated with fluoroalkoxycombretastatin for 72 hours, the MTT and SRB assays was used to evaluate its inhibition of tumor proliferation.
(§2) Cell groups: H460 human lung cancer cell, SGC7901: human stomach cancer cell, HT-29 human colon cancer cell, Bel-7402 human liver cancer cell.
(§3) Experiment design: cells were warm-cultured with the compounds in different concentrations (100, 10, 1, 0.1, 0.01, 0.001 μM) for 72 hours. SRB assay was used to evaluate the inhibition degree of the compounds to cell proliferation. The inhibition rate was calculated, and IC50 was calculated by using Logit model according to the inhibition rate. And the antitumor activity of compounds in vitro was compared.
(§4) The inhibition rate was expressed using the following equation: Inhibition rate (%)=[(average OD value of control group−average OD value of experimental group)/average OD value of control group]×100%.

Test [3] concerns H460 human lung cancer cell. In words: In vitro antitumor activity evaluation (SRB/MTT, 72 hours), H460. The class given is cell-based. As to conditions: Logit model, read-out: IC50 Non-small cell lung cancer H460. Here is the method: as §1, §2, §3, §4
The subject of test [4] is HT-29 human colon cancer cell. In words: In vitro antitumor activity evaluation (SRB/MTT, 72 hours), HT-29. In kind it is cell-based. The following applies: Logit model, read-out: IC50 Colon cancer HT29. Here is the method:
as §1, §2, §3, §4

Test [5] concerns Bel-7402 human liver cancer cell. In words: In vitro antitumor activity evaluation (SRB/MTT, 72 hours), Bel-7402. The class given is cell-based. The following applies: Logit model. How it is done: as §1, §2, §3, §4
Test [6] relates to human umbilical vein endothelial cells (HUVEC). In words: In vitro neovascular inhibition evaluation. The class given is cell-based. The following applies: same method as Example 15 (72 hours). How it is done: as §1, §3, §4
Anti-angiogenesis effects of fluoroalkoxycombretastatins were assessed in human umbilical vein endothelial cells (HUVEC) using the same method in Example 15.

Test [7] has as its system tumor. The following applies: within 4 to 6 hours after the treatment of CA-4, cancer patients; cited from earlier work.
Where [8] appears, read: Homo sapiens, SGC-7901, SRB assay.
[9] abbreviates: Homo sapiens, NCI-H460, SRB assay.
Setting [10] is: Homo sapiens, Bel-7402, SRB assay.

On to `COc1ccc(/C=C\c2cc(OC)c(OC)c(OC)c2)c(O)c1O` [CA-1, combretastatin A-1], for which the “inhibition of tubulin polymerization” value in test [1] is listed as “exceptionally strong inhibitors of tubulin polymerization”.

Usually pIC50 stands for the IC50 on a negative log10 scale, so that one unit is a factor of ten. As for `COc1ccc(/C=C\c2cc(OC)c(OC)c(OC)c2)cc1O` [CA-4, combretastatin A-4, reference compound], the pIC50 in test [2] (SRB assay) is 8.00; in test [3] (SRB assay), 7.57; in test [4] (SRB assay), 5.62; in test [5] (SRB assay), 6.12; in test [6] it was 8.52. Also, the blood flow result in test [7] was “decreased obviously”. Also, the tumor cells died result in test [7] is “more than 95%”. Besides, the “inhibition of tubulin polymerization” value in test [1] was “exceptionally strong inhibitors of tubulin polymerization”.

As to `COc1cc(/C=C\c2ccc(OC(F)F)c(O)c2)cc(OC)c1OC` [DD8011, (Z)-1-(3,4,5-trimethoxyphenyl)-2-(3′-hydroxy-4′-difluoromethoxyphenyl)-ethene], the pIC50 in test [2] (setting [8]) was 7.66; in test [3] (setting [9]), 7.36; in test [4] (Homo sapiens, HT-29, SRB assay) it was 5.52; in test [5] (setting [10]), 6.04; in test [6] (Homo sapiens, HUVEC), 8.70.

For `COc1cc(/C=C\c2ccc(OC(F)F)c(N)c2)cc(OC)c1OC` [DD8021, (Z)-1-(3,4,5-trimethoxyphenyl)-2-(3′-amino-4′-difluoromethoxyphenyl)-ethene], the pIC50 was 7.74 in test [2] (setting [8]); 7.44 in test [3] (setting [9]); 5.65 in test [4] (Homo sapiens, HT-29, SRB assay); 6.08 in test [5] (setting [10]); 8.70 in test [6] (Homo sapiens, HUVEC).

`COc1cc(/C=C\c2ccc(OCC(F)(F)F)c(O)c2)cc(OC)c1OC` [DD8031, (Z)-1-(3,4,5-trimethoxyphenyl)-2-(3′-hydroxy-4′-trifluoroethoxyphenyl)-ethene]: the pIC50 was 8.30 in test [2] (setting [8]); 8.30 in test [3] (setting [9]); 7.10 in test [4] (Homo sapiens, HT-29, SRB assay); 6.52 in test [5] (setting [10]); 9.00 in test [6] (Homo sapiens, HUVEC).

As for `COc1cc(/C=C\c2ccc(OCC(F)(F)F)c(N)c2)cc(OC)c1OC` [DD8041, (Z)-1-(3,4,5-trimethoxyphenyl)-2-(3′-amino-4′-trifluoroethoxyphenyl)-ethene], the pIC50 in test [2] (setting [8]) is 8.52; in test [3] (setting [9]), 8.30; in test [4] (Homo sapiens, HT-29, SRB assay), 7.17; in test [5] (setting [10]), 6.55; in test [6] (Homo sapiens, HUVEC) it was 9.00.
